# Test results from paper PMC10809383, “Synthesis and migrastatic activity of cytochalasin analogues lacking a macrocyclic moiety” (RSC Medicinal Chemistry, 2023).
# Entries after “also recorded” stand apart in the source; their conditions may differ.
# What was measured:
# [1] = tested on: human melanoma cells (BLM); test: WST-1 viability assay, BLM cells; assay type: cell-based
# Experimental: (§1) In addition, the cytotoxic activity of compounds 17, 20, and 22–30 was assessed by the WST-1 viability assay using BLM (human melanoma) and MRC-5 (noncancerous human fibroblasts) cells growing in a monolayer (2D cultures, Table 2) after 72 h of treatment.
# (§2) Human cells from melanoma (BLM) and human lung fibroblasts (MRC-5, Merck, USA) were used to evaluate in vitro cytotoxicity of the prepared compounds. The cells were maintained at the exponential phase of growth (passaging done by trypsin–EDTA solution) in DMEM and MEM, for BLM and MRC-5, respectively, with stable L-glutamine and supplemented with 10% fetal bovine serum (Thermo Fisher Scientific, USA). The cells were kept in an incubator at 37 °C, 5% CO2 in the atmosphere, and 95% humidity.
# (§3) The compound cytotoxicity was determined by a WST-1 viability assay (Merck, USA). The amount of 5000 BLM and MRC-5 cells were seeded into individual wells of 96-well plates in 100 μL of cell cultivation media and maintained in an incubator for 16 h. After this period, the cells were treated with a concentration series (0–50 μM) of the tested compounds diluted in another 100 μL of cultivation media, which was added to the wells containing cells and incubated for 72 h. Then, BLM and MRC-5 cell viability was evaluated by WST-1 agent (5% v/v solution in phenol red-free DMEM media), i.e., the cell media was discarded and 100 μL of WST-1 solution was added. After 2 h incubation, the absorbance of formazan, derived from the WST-1 tetrazolium salt was determined spectrophotometrically at 450 nm (reference at 650 nm) by a UV-vis spectrophotometer (Bio-Rad, USA). Untreated cells, cells treated only with a vehicle, and cells treated with cytochalasin B (1) and D (2) served as controls. The measurement occurred in three independent repetitions each of which consisted of three technical replicates. The data were plotted as dose–response curves from which the half-maximal inhibitory concentrations (IC50) were calculated using AAT Bioquest.
# [2] = tested on: human melanoma cell line BLM; test: Spheroid invasion assay (migrastatic activity); assay type: cell-based; settings: 24 h
# Experimental: Compounds 17, 20, and 22–30 were screened for their migrastatic activity using a spheroid invasion assay with the human melanoma cell line BLM.[46] Spheroids were formed and subsequently treated with cytochalasin analogues at a concentration of 10 μM for 24 h. CytB (1) and CytD (2) served as reference compounds for comparison. There was no significant increase in cell migration observed for any of the compounds tested. […] However, the effect was less profound than that of the reference compounds 1 and 2.
# The spheroid invasion assay was performed following a previously published protocol.[63] Briefly, BLM cells were grown as spheroids using 3D Petri Dish (Microtissues). After 2 days of spheroid formation, 1.5 mg mL^−1 collagen solution (rat tail, collagen type I) was prepared (1.5 mg mL^−1 rat-tail collagen, 1× DMEM, 1% (v/v) FBS) and added at the bottom of a 96-well plate. Spheroids were embedded into the collagen (one spheroid per well) and covered with another layer of the gel. Collagen was polymerized at 37 °C and subsequently overlaid with a cultivation medium. Images of spheroids were taken with Leica TCS SP2 microscope (5×/0.15 dry objective; LAS X Life Science Microscope software) immediately after their seeding into collagen and again after 24 h. The area of the spheroids at 0 and 24 h was measured using FiJi (Rasband, W.S., ImageJ, NIH, Bethesda, MD, USA). Cellular invasiveness was determined as an increase in spheroid area within 24 h. Three independent experiments were conducted with at least 8 spheroids analysed in each experiment. Statistical analysis was performed in GraphPad using one-way ANOVA. For numeric data and representative images from this assay, see ESI, ^† Table S1 and Fig. S1.
# Table S1: Spheroid invasion assay with BLM cell line at 10 µM concentration, 24 h.
# Figure S1: Representative images of BLM cell spheroid invasion assay with or without
# inhibitor. Images were taken at 0 h and 24 h. using a Leica TCS SP2 microscope (5x/0.15
# dry objective). DMSO (first column) was used as a control. Scale bar 500 µm.
# [3] = tested on: HT1080 fibrosarcoma cells; test: Fluorescence microscopy of actin cytoskeleton (SPY650-FastAct time-lapse); assay type: cell-based; settings: for effect on the actin cytoskeleton: 10 μM
# Experimental: Next, we conducted experiments to assess the impact of compound 24, CytB (1) and CytD (2) on the actin cytoskeleton using fluorescence microscopy in HT1080 fibrosarcoma cells (Fig. 3). […] Therefore, we increased the concentration up to 50 μM.
# HT1080 cells were seeded into 12-well glass bottom plate and stained with SPY650-FastAct™ following manufacturer's protocol. Untreated cells (control) were imaged every 20 s for 15 min using Leica TCS SP2 microscope (40×/0.6 dry objective). Afterwards, an inhibitor (compound 24 at 10 μM; 50 μM or compound 1 and 2 at 10 μM) was added into the same well and its effect was recorded for 15 min (20 s/image). All video recordings were analyzed using FiJi (Rasband, W.S., ImageJ, NIH, Bethesda, MD, USA).
# actin = target: T1, actin (Oryctolagus cuniculus, UniProt P68135); test: Actin polymerization assay (pyrene-actin, Actin Polymerization Biochem Kit); assay type: biochemical; settings: 10 μM, in vitro
# T1 construct: purchased Cytoskeleton, Inc, Denver, CO
# Experimental: To further ascertain the compounds' interference with actin polymerization, the active compounds, along with CytB (1) as a positive control and compound 26 as a negative control, were subjected to an in vitro actin polymerization assay (Fig. 2B). […] This correlation between actin inhibitory activity and migrastatic effect underscores the pivotal role of actin polymerization inhibition in mediating the observed migrastatic activity.
# Actin polymerization assay was performed using Actin Polymerization Biochem Kit™ (Cytoskeleton, Inc, Denver, CO) according to the manufacturer protocol. Briefly, 25 μL of G-buffer containing labelled pyrene-actin (0.4 mg mL^−1) and 2.48 μL of either DMSO (10 μM, control) or inhibitor (10 μM) was added in […] well plate. Actin polymerization was initiated by the addition of 2.48 μL of 10× actin polymerization buffer and analysed in time until fluorescent signal plateau was reached using a spectrophotometer (Infinite 200 PRO, Tecan Life Sciences, Tecan Group Ltd., Zürich, CHE). The fluorescence emission intensity of actin polymerization was measured at 420 nm and 360 nm was used as excitation wavelength. Statistical analysis was performed in GraphPad using one-way ANOVA. Measurements were performed in three independent repetitions each consisting of at least three technical replicates. For a representative graph from this assay, see ESI, ^† Fig. S2.
# [4] = tested on: human fibroblasts (MRC-5); test: WST-1 viability assay, MRC-5 cells; assay type: cell-based; settings: MRC5, 72 h treatment, WST-1 assay, 2D culture, 0–50 μM
# Experimental: as §1, §2, §3
smiles,measurement,setting,value
"C=C1[C@@H](C)[C@H]2[C@H](Cc3ccccc3)NC(=O)[C@@]2(C(=O)OC)[C@@H](CCOCCc2ccccc2)[C@@H]1O [Compound 24, Methyl (1S,3aS,4R,5S,7S,7aR)-1-benzyl-5-hydroxy-7-methyl-6-methylene-3-oxo-4-(2-phenethoxyethyl)octahydro-3aH-isoindole-3a-carboxylate]",IC50,"[1]; Homo sapiens, 72 h treatment, WST-1 assay, 2D culture, 0–50 μM",> 50 µM
same,cytotoxicity (in words),"[1]; WST-1, up to 50 μM, cell line not given",non-cytotoxic
same,"migrastatic activity (cell migration, in words)","[2]; 10 μM, BLM spheroid invasion",significant in vitro migrastatic activity; also recorded: significant decrease in cell migration; also recorded: most potent migrastatic activity
same,rel. spheroid area,"[2]; 10 µM, BLM spheroids in collagen, DMSO control 1.02",0.46
same,effect on the actin cytoskeleton,[3]; after 5 min,observable alterations became apparent
same,effect on the actin cytoskeleton,[3]; within 2 min of addition,no effect was observed
same,change in cell morphology,"[3]; 50 μM, after 2 min",visible change in cell morphology was observed
same,inhibition of actin polymerization (in words),actin,inhibit actin polymerization; also recorded: inhibition of actin polymerization
same,IC50,[4],> 50 µM
